Tests used:
Neratinib/HKI272 = compound: CCOc1cc2ncc(C#N)c(Nc3ccc(OCc4ccccn4)c(Cl)c3)c2cc1NC(=O)/C=C/CN(C)C [Neratinib/HKI272]; experiment: increase in dead-cell fraction, 72 h; higher = more death;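 also: breast cancer cell lines in 384-well plates, stained with Hoechst plus LIVE/DEAD far red dye and imaged, cells above an LDR intensity threshold counted dead, Hoechst-negative corpses included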
[1] = compound: CCN1CCN(Cc2ccc(Nc3ncc(F)c(-c4cc(F)c5nc(C)n(C(C)C)c5c4)n3)nc2)CC1; experiment: as above
BSJ-03-123 = compound: CC(=O)c1c(C)c2cnc(Nc3ccc(N4CCN(CCOCCOCCOCCNC(=O)COc5cccc6c5C(=O)N(C5CCC(=O)NC5=O)C6=O)CC4)cn3)nc2n(C2CCCC2)c1=O [BSJ-03-123]; experiment: as above
Flavopiridol = compound: CN1CC[C@H](c2c(O)cc(O)c3c(=O)cc(-c4ccccc4Cl)oc23)[C@H](O)C1 [Flavopiridol]; experiment: as above
THZ531 = compound: CN(C)C/C=C/C(=O)Nc1ccc(C(=O)N2CCC[C@@H](Nc3ncc(Cl)c(-c4c[nH]c5ccccc45)n3)C2)cc1 [THZ531]; experiment: as above
THZ1 = compound: CN(C)C/C=C/C(=O)Nc1ccc(C(=O)Nc2cccc(Nc3ncc(Cl)c(-c4c[nH]c5ccccc45)n3)c2)cc1 [THZ1]; experiment: as above
LEE011/Ribociclib = compound: CN(C)C(=O)c1cc2cnc(Nc3ccc(N4CCNCC4)cn3)nc2n1C1CCCC1 [LEE011/Ribociclib]; experiment: as above
YKL-5-124 = compound: C=CC(=O)Nc1ccc(C(=O)Nc2[nH]nc3c2CN(C(=O)N[C@H](CN(C)C)c2ccccc2)C3(C)C)cc1 [YKL-5-124]; experiment: as above
[2] = compound: CC(=O)c1c(C)c2cnc(Nc3ccc(N4CCNCC4)cn3)nc2n(C2CCCC2)c1=O; experiment: as above
[3] = compound: CCc1cnn2c(NCc3ccc[n+]([O-])c3)cc(N3CCCC[C@H]3CCO)nc12; experiment: as above
[4] = compound: CCCCOc1c(C(=O)c2c(F)cc(C)cc2F)c[nH]c2nncc1-2
Saracatinib/AZD0530 = compound: CN1CCN(CCOc2cc(OC3CCOCC3)c3c(Nc4c(Cl)ccc5c4OCO5)ncnc3c2)CC1 [Saracatinib/AZD0530]
Luminespib/NVP-AUY922 = compound: CCNC(=O)c1noc(-c2cc(C(C)C)c(O)cc2O)c1-c1ccc(CN2CCOCC2)cc1 [Luminespib/NVP-AUY922]
BSJ-01-175 = compound: CN(C)C/C=C/C(=O)Nc1ccc(O[C@@H]2CCC[C@@H](Nc3ncc(Cl)c(-c4c[nH]c5ccccc45)n3)C2)cc1 [BSJ-01-175]
THZ-P1-2 = compound: CN(C)C/C=C/C(=O)NC1=CC=C(C=C1)C(=O)NC2=CC=CC(=C2)NC3=NC=NC(=C3)C4=CNC5=CC=CC=C54 [THZ-P1-2]
Ceritinib/LDK378 = compound: Cc1cc(Nc2ncc(Cl)c(Nc3ccccc3S(=O)(=O)C(C)C)n2)c(OC(C)C)cc1C1CCNCC1 [Ceritinib/LDK378]
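For GR50, 72 h in this document: breast cancer and non-malignant breast epithelial cell lines, Deep Dye Drop or Dye Drop imaging, nine half-log doses, GR normalized to time-zero plates and DMSO-only controls.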

Cell Line: HCC1419
- increase in dead-cell fraction (Neratinib/HKI272; 0.0003162 µM): -0.0014
- increase in dead-cell fraction (Neratinib/HKI272; 0.001 µM): 0.0002
- increase in dead-cell fraction (Neratinib/HKI272; 0.003162 µM): 0.0137
- increase in dead-cell fraction (Neratinib/HKI272; 0.01 µM): 0.0803
- increase in dead-cell fraction (Neratinib/HKI272; 0.03162 µM): 0.168
- increase in dead-cell fraction (Neratinib/HKI272; 0.1 µM): 0.238
- increase in dead-cell fraction (Neratinib/HKI272; 0.3162 µM): 0.274
- increase in dead-cell fraction (Neratinib/HKI272; 1 µM): 0.366
- increase in dead-cell fraction (Neratinib/HKI272; 3.162 µM): 0.493
- increase in dead-cell fraction ([1]; 0.001 µM): -0.0053
- increase in dead-cell fraction ([1]; 0.003162 µM): -0.0087
- increase in dead-cell fraction ([1]; 0.01 µM): -0.0058
- increase in dead-cell fraction ([1]; 0.03162 µM): -0.0119
- increase in dead-cell fraction ([1]; 0.1 µM): -0.0149
- increase in dead-cell fraction ([1]; 0.3162 µM): -0.0181
- increase in dead-cell fraction ([1]; 1 µM): -0.006
- increase in dead-cell fraction ([1]; 3.162 µM): -0.0031
- increase in dead-cell fraction ([1]; 10 µM): 0.0471
- increase in dead-cell fraction (BSJ-03-123; 0.001 µM): 0.0036
- increase in dead-cell fraction (BSJ-03-123; 0.003162 µM): 0.0018
- increase in dead-cell fraction (BSJ-03-123; 0.01 µM): 0.0094
- increase in dead-cell fraction (BSJ-03-123; 0.03162 µM): 0.0064
- increase in dead-cell fraction (BSJ-03-123; 0.1 µM): 0.0141
- increase in dead-cell fraction (BSJ-03-123; 0.3162 µM): 0.0138
- increase in dead-cell fraction (BSJ-03-123; 1 µM): 0.0115
- increase in dead-cell fraction (BSJ-03-123; 3.162 µM): 0.0247
- increase in dead-cell fraction (BSJ-03-123; 10 µM): 0.031
- increase in dead-cell fraction (Flavopiridol; 0.0001 µM): -0.0053
- increase in dead-cell fraction (Flavopiridol; 0.0003162 µM): -0.0069
- increase in dead-cell fraction (Flavopiridol; 0.001 µM): -0.006
- increase in dead-cell fraction (Flavopiridol; 0.003162 µM): -0.0084
- increase in dead-cell fraction (Flavopiridol; 0.01 µM): -0.0002
- increase in dead-cell fraction (Flavopiridol; 0.03162 µM): 0.0077
- increase in dead-cell fraction (Flavopiridol; 0.1 µM): 0.0061
- increase in dead-cell fraction (Flavopiridol; 0.3162 µM): 0.0159
- increase in dead-cell fraction (Flavopiridol; 1 µM): 0.162
- increase in dead-cell fraction (THZ531; 0.0001 µM): -0.0026
- increase in dead-cell fraction (THZ531; 0.0003162 µM): -0.0053
- increase in dead-cell fraction (THZ531; 0.001 µM): 0.0001
- increase in dead-cell fraction (THZ531; 0.003162 µM): -0.0057
- increase in dead-cell fraction (THZ531; 0.01 µM): -0.0018
- increase in dead-cell fraction (THZ531; 0.03162 µM): -0.001
- increase in dead-cell fraction (THZ531; 0.1 µM): 0.0145
- increase in dead-cell fraction (THZ531; 0.3162 µM): 0.0751
- increase in dead-cell fraction (THZ531; 1 µM): 0.14
- increase in dead-cell fraction (THZ1; 0.0001 µM): -0.0023
- increase in dead-cell fraction (THZ1; 0.0003162 µM): 0.0069
- increase in dead-cell fraction (THZ1; 0.001 µM): 0.0008
- increase in dead-cell fraction (THZ1; 0.003162 µM): 0.001
- increase in dead-cell fraction (THZ1; 0.01 µM): -0.0006
- increase in dead-cell fraction (THZ1; 0.03162 µM): -0.0062
- increase in dead-cell fraction (THZ1; 0.1 µM): 0.0395
- increase in dead-cell fraction (THZ1; 0.3162 µM): 0.147
- increase in dead-cell fraction (THZ1; 1 µM): 0.138
- increase in dead-cell fraction (LEE011/Ribociclib; 0.001 µM): -0.0016
- increase in dead-cell fraction (LEE011/Ribociclib; 0.003162 µM): 0.0044
- increase in dead-cell fraction (LEE011/Ribociclib; 0.01 µM): 0.0015
- increase in dead-cell fraction (LEE011/Ribociclib; 0.03162 µM): -0.0001
- increase in dead-cell fraction (LEE011/Ribociclib; 0.1 µM): 0.0168
- increase in dead-cell fraction (LEE011/Ribociclib; 0.3162 µM): 0.0148
- increase in dead-cell fraction (LEE011/Ribociclib; 1 µM): 0.0084
- increase in dead-cell fraction (LEE011/Ribociclib; 3.162 µM): 0.0128
- increase in dead-cell fraction (LEE011/Ribociclib; 10 µM): 0.0195
- increase in dead-cell fraction (YKL-5-124; 0.001 µM): 0.0323
- increase in dead-cell fraction (YKL-5-124; 0.003162 µM): 0.0181
- increase in dead-cell fraction (YKL-5-124; 0.01 µM): 0.0297
- increase in dead-cell fraction (YKL-5-124; 0.03162 µM): 0.0399
- increase in dead-cell fraction (YKL-5-124; 0.1 µM): 0.0564
- increase in dead-cell fraction (YKL-5-124; 0.3162 µM): 0.0505
- increase in dead-cell fraction (YKL-5-124; 1 µM): 0.0568
- increase in dead-cell fraction (YKL-5-124; 3.162 µM): 0.0662
- increase in dead-cell fraction (YKL-5-124; 10 µM): 0.187
- increase in dead-cell fraction ([2]; 0.0003162 µM): 0.0008
- increase in dead-cell fraction ([2]; 0.001 µM): -0.0028
- increase in dead-cell fraction ([2]; 0.003162 µM): -0.0032
- increase in dead-cell fraction ([2]; 0.01 µM): -0.0075
- increase in dead-cell fraction ([2]; 0.03162 µM): -0.0019
- increase in dead-cell fraction ([2]; 0.1 µM): -0.0096
- increase in dead-cell fraction ([2]; 0.3162 µM): -0.0094
- increase in dead-cell fraction ([2]; 1 µM): -0.0106
- increase in dead-cell fraction ([2]; 3.162 µM): -0.0074
- increase in dead-cell fraction ([3]; 0.0001 µM): -0.001
- increase in dead-cell fraction ([3]; 0.0003162 µM): -0.0047
- increase in dead-cell fraction ([3]; 0.001 µM): -0.0035
- increase in dead-cell fraction ([3]; 0.003162 µM): -0.0074
- increase in dead-cell fraction ([3]; 0.01 µM): -0.001
- increase in dead-cell fraction ([3]; 0.03162 µM): 0.0673
- increase in dead-cell fraction ([3]; 0.1 µM): 0.324
- increase in dead-cell fraction ([3]; 0.3162 µM): 0.371
- increase in dead-cell fraction ([3]; 1 µM): 0.369
- GR50, 72 h [4]: 0.65 µM
- GR50, 72 h (Saracatinib/AZD0530): 0.916 µM
- GR50, 72 h (Luminespib/NVP-AUY922): 0.007 µM
- GR50, 72 h (BSJ-01-175): 0.541 µM
- GR50, 72 h (THZ-P1-2): 6.2 µM
- GR50, 72 h (Ceritinib/LDK378): 2.61 µM

— the supplement of paper PMC9663587
